Results from patent US9302999B2, “Substituted triazoles as herbicides” (E. I. DU PONT DE NEMOURS AND COMPANY, priority 2012, dated 2016).
Where two headings read alike, the source gives them in different places.

Assays:
Type in all cases: in vivo
wild oat (Avena fatua) = test: Test C pre-/postemergence: wild oat
Excerpt: (§1) Seeds of plant species selected from blackgrass (Alopecurus myosuroides), bromegrass, downy (downy bromegrass, Bromus tectorum), foxtail, green (green foxtail, Setaria viridis), ryegrass, Italian (Italian ryegrass, Lolium multiflorum), winter wheat (Triticum aestivum), wild oat (Avena fatua), galium (catchweed bedstraw, Galium aparine), bermudagrass (Cynodon dactylon), surinam grass (Brachiaria decumbens), cocklebur (common cocklebur, Xanthium strumarium), corn (Zea mays), large crabgrass (Digitaria sanguinalis), woolly cupgrass (Eriochloa villosa), foxtail, giant (giant foxtail, Setaria faberii), goosegrass (Eleusine indica), johnsongrass (Sorghum halepense), kochia (Kochia scoparia), lambsquarters (Chenopodium album), morningglory (Ipomoea coccinea), nightshade (eastern black nightshade, Solanum ptycanthum), nutsedge, yellow (yellow nutsedge, Cyperus esculentus), pigweed (Amaranthus retroflexus), ragweed (common ragweed, Ambrosia elation), soybean (Glycine max), common (oilseed) sunflower (Helianthus annuus), Russian thistle (Salsola kali) and velvetleaf (Abutilon theophrasti) were planted into a blend of loam soil and sand and treated preemergence with test chemicals formulated in a non-phytotoxic solvent mixture which included a surfactant.
(§2) At the same time, plants selected from these crop and weed species and also barley (winter barley, Hordeum vulgare), canarygrass (Phalaris minor), chickweed (common chickweed, Stellaria media) windgrass (Apera spica-venti) and deadnettle (henbit deadnettle, Lamium amplexicaule) were planted in pots containing Redi-Earth® planting medium (Scotts Company, 14111 Scottslawn Road, Marysville, Ohio 43041) comprising spaghnum peat moss, vermiculite, wetting agent and starter nutrients and treated with postemergence applications of test chemicals formulated in the same manner. Plants ranged in height from 2 to 18 cm (1- to 4-leaf stage) for postemergence treatments.
(§3) Treated plants and controls were maintained in a greenhouse for 13 to 15 days, after which time all species were compared to controls and visually evaluated. Plant response ratings, summarized in Table C, are based on a scale of 0 to 100 where 0 is no effect and 100 is complete control. A dash (-) response means no test result.

[1] = system: johnsongrass (Sorghum halepense); test: Test C pre-/postemergence: johnsongrass; settings: Postemergence
How it was run: (§4)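 Visual injury scored 0–100 (100 = complete control) against untreated controls after 13–15 greenhouse days. Surfactant-containing solvent formulations applied either to soil after sowing (loam/sand) or over 1- to 4-leaf plants, 2–18 cm tall.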

corn (Zea mays) = test: Test C pre-/postemergence: corn; settings: Postemergence
How it was run: as §4

[2] = system: crabgrass, large (large crabgrass, Digitaria sanguinalis); test: Test A pre-/postemergence: crabgrass, large; settings: Digitaria sanguinalis, 240 h; for pest or weed control at 125 g/ha: 125 g ai/ha; for pest or weed control at 500 g/ha: 500 g ai/ha
How it was run: (§5)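 Injury is scored visually on a scale where 0 means no effect and 100 complete control, comparing treated with untreated plants after approximately ten greenhouse days. Both preemergence and postemergence applications are made at the same time.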

[3] = system: large crabgrass (Digitaria sanguinalis); test: Test C pre-/postemergence: large crabgrass; settings: Postemergence
How it was run: as §4

[4] = system: winter wheat (Triticum aestivum); test: Test C pre-/postemergence: winter wheat
How it was run: as §4

soybean (Glycine max) = test: Test C pre-/postemergence: soybean; settings: Postemergence
How it was run: as §4

[5] = system: nutsedge, yellow (yellow nutsedge, Cyperus esculentus); test: Test C pre-/postemergence: nutsedge, yellow; settings: Postemergence
How it was run: as §4

[6] = system: barnyardgrass (Echinochloa crus-galli); test: Test A pre-/postemergence: barnyardgrass; settings: Echinochloa crus-galli, 240 h; for pest or weed control at 125 g/ha: 125 g ai/ha; for pest or weed control at 500 g/ha: 500 g ai/ha
How it was run: as §5

[7] = system: blackgrass (Alopecurus myosuroides); test: Test C pre-/postemergence: blackgrass
How it was run: as §4

[8] = system: ragweed (common ragweed, Ambrosia elation); test: Test C pre-/postemergence: ragweed; settings: Postemergence
Excerpt: as §1, §2, §3

[9] = system: foxtail, giant (giant foxtail, Setaria faberii); test: Test A pre-/postemergence: foxtail, giant; settings: Setaria faberi, 240 h; for pest or weed control at 125 g/ha: 125 g ai/ha; for pest or weed control at 500 g/ha: 500 g ai/ha
How it was run: as §5

[10] = Postemergence, 31 g ai/ha, scale 0 to 100 (0 no effect, 100 complete control)
[11] = Postemergence, 62 g ai/ha, scale 0 to 100 (0 no effect, 100 complete control)
[12] = Postemergence, 125 g ai/ha, scale 0 to 100, 0 no effect, 100 complete control
[13] = Postemergence, 250 g ai/ha, scale 0 to 100
[14] = Preemergence, 31 g ai/ha, scale of 0 to 100, 0 is no effect, 100 is complete control
[15] = Preemergence, 62 g ai/ha, scale of 0 to 100, 0 is no effect, 100 is complete control
[16] = Preemergence, 125 g ai/ha, scale 0 to 100, 0 no effect, 100 complete control
[17] = Preemergence, 250 g ai/ha, scale 0 to 100, 0 no effect, 100 complete control
[18] = 31 g ai/ha, scale 0 to 100 (0 no effect, 100 complete control)
[19] = 62 g ai/ha, scale 0 to 100 (0 no effect, 100 complete control)
[20] = 125 g ai/ha, scale 0 to 100, 0 no effect, 100 complete control

Cc1nn(-c2ccc(F)cc2)nc1Cc1ccnc(C(F)(F)F)c1 [Compound 16, 4-[[2-(4-fluorophenyl)-5-methyl-2H-1,2,3-triazol-4-yl]methyl]-2-(trifluoromethyl)pyridine]
Plant response rating, Oat, Wild (wild oat (Avena fatua); [10]): 5
Plant response rating, Oat, Wild (wild oat (Avena fatua); [11]): 10
Plant response rating, Oat, Wild (wild oat (Avena fatua); [12]): 20
Plant response rating, Oat, Wild (wild oat (Avena fatua); [13]): 80
Plant response rating, Oat, Wild (wild oat (Avena fatua); [14]): 98
Plant response rating, Oat, Wild (wild oat (Avena fatua); [15]): 100
Plant response rating, Oat, Wild (wild oat (Avena fatua); [16]): 100
Plant response rating, Oat, Wild (wild oat (Avena fatua); [17]): 100
Plant response rating, Johnsongrass [1, 18]: 0
Plant response rating, Johnsongrass [1, 19]: 0
Plant response rating, Johnsongrass [1, 20]: 45
Plant response rating, Johnsongrass ([1]; 250 g ai/ha, scale 0 to 100): 45
Plant response rating, Corn (corn (Zea mays); [18]): 5
Plant response rating, Corn (corn (Zea mays); [19]): 15
Plant response rating, Corn (corn (Zea mays); [20]): 15
Plant response rating, Corn (corn (Zea mays); 250 g ai/ha, scale 0 to 100): 15
pest or weed control at 125 g/ha ([2]; post-emergence, Postemergence, 0 to 100 scale, 0 is no effect, 100 is complete control, read-out: Crabgrass, Large plant response rating): 90%
pest or weed control at 500 g/ha ([2]; post-emergence, Postemergence, visual rating on 0 to 100 scale (0 no effect, 100 complete control), approximately ten days, read-out: Crabgrass, Large plant response rating): 90%
pest or weed control at 125 g/ha ([2]; pre-emergence, Preemergence, 0 to 100 scale (0 no effect, 100 complete control), read-out: Plant response rating, Crabgrass, Large): 90%
pest or weed control at 500 g/ha ([2]; pre-emergence, Preemergence, 0 to 100 scale, 0 is no effect, 100 is complete control, read-out: Plant response rating, Crabgrass, Large): 100%
Plant response rating, Crabgrass, Large [3, 18]: 5
Plant response rating, Crabgrass, Large [3, 19]: 5
Plant response rating, Crabgrass, Large [3, 20]: 20
Plant response rating, Crabgrass, Large ([3]; 250 g ai/ha, scale 0 to 100): 60
Plant response rating, Wheat [4, 10]: 5
Plant response rating, Wheat [4, 11]: 20
Plant response rating, Wheat [4, 12]: 25
Plant response rating, Wheat [4, 13]: 30
Plant response rating, Wheat [4, 14]: 0
Plant response rating, Wheat [4, 15]: 5
Plant response rating, Wheat [4, 16]: 15
Plant response rating, Wheat [4, 17]: 45
Plant response rating, Soybean (soybean (Glycine max); [18]): 20
Plant response rating, Soybean (soybean (Glycine max); [19]): 25
Plant response rating, Soybean (soybean (Glycine max); [20]): 35
Plant response rating, Soybean (soybean (Glycine max); 250 g ai/ha, scale 0 to 100): 35
Plant response rating, Nutsedge, Yellow [5, 18]: 0
Plant response rating, Nutsedge, Yellow [5, 19]: 0
Plant response rating, Nutsedge, Yellow [5, 20]: 0
Plant response rating, Nutsedge, Yellow ([5]; 250 g ai/ha, scale 0 to 100): 0
pest or weed control at 125 g/ha ([6]; post-emergence, Postemergence, 0 to 100 scale, 0 is no effect, 100 is complete control, read-out: Barnyardgrass plant response rating): 90%
pest or weed control at 500 g/ha ([6]; post-emergence, Postemergence, visual rating on 0 to 100 scale (0 no effect, 100 complete control), approximately ten days, read-out: Barnyardgrass plant response rating): 100%
pest or weed control at 125 g/ha ([6]; pre-emergence, Preemergence, 0 to 100 scale (0 no effect, 100 complete control), read-out: Plant response rating, Barnyardgrass): 90%
pest or weed control at 500 g/ha ([6]; pre-emergence, Preemergence, 0 to 100 scale, 0 is no effect, 100 is complete control, read-out: Plant response rating, Barnyardgrass): 100%
Plant response rating, Blackgrass [7, 10]: 10
Plant response rating, Blackgrass [7, 11]: 25
Plant response rating, Blackgrass [7, 12]: 40
Plant response rating, Blackgrass [7, 13]: 80
Plant response rating, Blackgrass [7, 14]: 90
Plant response rating, Blackgrass ([7]; Preemergence, 62 g ai/ha, scale 0 to 100, 0 no effect, 100 complete control): 100
Plant response rating, Blackgrass [7, 16]: 100
Plant response rating, Blackgrass [7, 17]: 100
Plant response rating, Ragweed [8, 18]: 5
Plant response rating, Ragweed [8, 19]: 25
Plant response rating, Ragweed [8, 20]: 75
Plant response rating, Ragweed ([8]; 250 g ai/ha, scale 0 to 100): 75
pest or weed control at 125 g/ha ([9]; post-emergence, Postemergence, 0 to 100 scale, 0 is no effect, 100 is complete control, read-out: Foxtail, Giant plant response rating): 90%
pest or weed control at 500 g/ha ([9]; post-emergence, Postemergence, visual rating on 0 to 100 scale (0 no effect, 100 complete control), approximately ten days, read-out: Foxtail, Giant plant response rating): 90%
pest or weed control at 125 g/ha ([9]; pre-emergence, Preemergence, 0 to 100 scale (0 no effect, 100 complete control), read-out: Plant response rating, Foxtail, Giant): 100%
pest or weed control at 500 g/ha ([9]; pre-emergence, Preemergence, 0 to 100 scale, 0 is no effect, 100 is complete control, read-out: Plant response rating, Foxtail, Giant): 100%
